Measured values: patent US9290440B2, “Bicyclic compound” (TOA EIYO LTD., priority 2012, dated 2016)
Like-named read-outs stand apart in the source and are kept apart here.

Tests used:
[1] = molecular target: T1, human sGC α subunit and β subunit (Homo sapiens, UniProt Q02153); experiment: Maximum effect of sGC activating function (Ca2+ fluorescence in CHO-K1 cells expressing human sGC and mouse CNGA2); type: cell-based; settings: increase ratio of sGC activity vs control solution at 10 μmol/L test compound
T1 construct: expressed in transfected cells
T1 sequence (Q02153 1-619): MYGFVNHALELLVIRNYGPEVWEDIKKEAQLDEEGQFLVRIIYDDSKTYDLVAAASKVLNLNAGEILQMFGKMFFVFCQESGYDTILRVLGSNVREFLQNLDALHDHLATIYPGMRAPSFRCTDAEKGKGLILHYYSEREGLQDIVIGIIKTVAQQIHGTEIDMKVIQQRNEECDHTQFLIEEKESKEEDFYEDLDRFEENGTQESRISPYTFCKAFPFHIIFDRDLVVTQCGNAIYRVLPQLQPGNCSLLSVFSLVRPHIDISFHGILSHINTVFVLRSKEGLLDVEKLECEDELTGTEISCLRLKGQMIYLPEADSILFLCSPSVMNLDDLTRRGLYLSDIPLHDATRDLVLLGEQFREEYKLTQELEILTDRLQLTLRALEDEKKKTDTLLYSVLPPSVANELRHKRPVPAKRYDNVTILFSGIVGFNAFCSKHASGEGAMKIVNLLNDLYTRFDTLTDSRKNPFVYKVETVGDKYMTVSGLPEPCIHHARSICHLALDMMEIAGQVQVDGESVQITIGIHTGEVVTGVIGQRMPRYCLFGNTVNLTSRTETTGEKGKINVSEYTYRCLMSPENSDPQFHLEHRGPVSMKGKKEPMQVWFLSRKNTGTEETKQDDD
T1 sequence (Q02108 1-690 partner): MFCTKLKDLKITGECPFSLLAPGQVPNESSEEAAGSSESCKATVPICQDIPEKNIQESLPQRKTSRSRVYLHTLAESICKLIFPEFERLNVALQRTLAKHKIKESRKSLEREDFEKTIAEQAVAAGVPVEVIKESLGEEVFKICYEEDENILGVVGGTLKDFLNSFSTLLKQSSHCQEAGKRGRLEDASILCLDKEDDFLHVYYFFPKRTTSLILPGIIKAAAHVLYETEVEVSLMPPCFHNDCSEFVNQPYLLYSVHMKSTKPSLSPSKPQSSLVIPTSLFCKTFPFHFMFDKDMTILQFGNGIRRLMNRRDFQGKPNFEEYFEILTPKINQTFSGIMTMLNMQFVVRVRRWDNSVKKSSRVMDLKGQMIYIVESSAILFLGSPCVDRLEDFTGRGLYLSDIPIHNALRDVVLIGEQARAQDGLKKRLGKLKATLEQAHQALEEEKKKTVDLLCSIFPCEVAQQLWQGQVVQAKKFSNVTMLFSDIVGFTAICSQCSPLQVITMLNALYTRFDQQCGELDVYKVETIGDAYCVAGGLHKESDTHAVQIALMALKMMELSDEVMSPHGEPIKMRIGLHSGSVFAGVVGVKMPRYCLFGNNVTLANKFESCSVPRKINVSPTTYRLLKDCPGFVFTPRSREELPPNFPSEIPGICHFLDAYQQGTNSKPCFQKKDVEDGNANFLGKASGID
Procedure: For the assay, Chinese hamster ovary cells (CHO-K1 cells) in which human sGC α subunit and β subunit and mouse cyclic nucleotide gated channel (CNGA2) are stably expressed were used.
CHO-K1 cells in which human sGC and mouse CNGA2 are stably expressed were cultured at 37° C. in F-12 medium containing 10% (v/v) fetal bovine serum (FBS), penicillin (100 U/mL), streptomycin (100 μg/mL), G418 (250 μg/mL), and zeocin (250 μg/mL). The cells were suspended in the culture medium and seeded onto a 96-well plate, and then cultured at 37° C. for 24 hours. After washing with assay buffer 1 (140 mmol/L sodium chloride, 5 mmol/L potassium chloride, 0.5 mmol/L magnesium chloride, 0.01 mmol/L calcium chloride, 10 mmol/L glucose, 0.4 mmol/L magnesium sulfate, 10 mmol/L 4-(2-hydroxyethyl)piperazin-1-ylethane sulfonic acid, and 125 μmol/L sulfinpyrazone, pH 7.4), an indicator solution in which FURA2-AM as a fluorescent Ca^2+ indicator is dissolved at concentration of 5 μmol/L in assay buffer 1 was added followed by culture for 60 minutes at 37° C. The indicator solution was removed. After washing with assay buffer 1, the test compound solution was added and incubated for 10 minutes at room temperature. The plate was placed in a fluorometer (Flex Station II, Molecular Devices, LLC), and then the intracellular calcium concentration was measured as fluorescence intensity ratio which is obtained from each excitation wavelength (excitation wavelength of 340 nm and 380 nm and detection wavelength of 510 nm).
The test compound solution was prepared by dissolving each of the test compounds in DMSO to a concentration of 10 mmol/L, and then adding the assay buffer 2 (140 mmol/L sodium chloride, 5 mmol/L potassium chloride, 0.5 mmol/L magnesium chloride, 1 mmol/L calcium chloride, 10 mmol/L glucose, 0.4 mmol/L magnesium sulfate, 10 mmol/L 4-(2-hydroxyethyl)piperazin-1-ylethane sulfonic acid, 125 μmol/L sulfinpyrazone, 100 μmol/L isobutylmethylxanthine, 10 μmol/L 1H-[1,2,4]-oxadiazole[4,3-a]quinoxalin-1-one (hereinbelow, ODQ), pH 7.4) for dilution to have test concentration of 10 μmol/L. For the evaluation of a case in which ODQ is not contained, the same evaluation was performed except that ODQ is excluded from assay buffer 2. As a control solution, a DMSO solution was used instead of the test compound solution.
The activity of the test compound corresponds to the increase ratio (%) of the sGC activity at the time of adding the test compound solution with respect to the sGC activity at the time of adding the control solution, and it was calculated by dividing the fluorescence intensity ratio at the time of adding the test compound by the fluorescence intensity ratio of the control solution and subtracting the sGC activity (100%) at the time of adding the control solution.
In this assay, intracellular cGMP concentration increases as sGC is activated, and according to opening of CNGA2 following the increase of cGMP, intracellular Ca^2+ concentration increases. Thus, SGC activation can be measured by following the change in intracellular Ca^2+ concentration. […] Thus, in the absence of ODQ, the maximum sGC activating function including the heme-dependent activation can be evaluated while the heme-independent sGC activating function can be evaluated in the presence of ODQ.

[2] = test system: abdominal aorta ring specimen; experiment: Evaluation of blood vessel relaxing function (phenylephrine-contracted abdominal aorta ring); settings: relaxation of rat abdominal aorta contracted with 1 μmol/L phenylephrine; without vs with 10 μmol/L ODQ
Procedure: The representative compounds of the present invention were evaluated by blood vessel relaxing function according to the following Test Example. In the assay, bleeding from the upper part of a heart of a rat (male, SD) was performed under anesthesia with pentobarbital (30 mg/kg) and then abdominal aorta was extracted. The connecting tissue adhered around blood vessel was removed from the abdominal aorta in an ice-cooled Krebs-Henseleit solution (KH solution) (118 mmol/L sodium chloride, 4.7 mmol/L potassium chloride, 1.2 mmol/L magnesium sulfate, 1.2 mmol/L potassium dihydrogen phosphate, 25 mmol/L sodium hydrogen carbonate, 2.5 mmol/L calcium chloride, and 10 mmol/L glucose, pH 7.4). After that, a ring specimen with length of 2 mm was prepared and fixed in 5 mL organ bath filled with a KH solution. The KH solution was kept at 37° C. and aerated with a mixture gas of 95% O2 and 5% CO2. The specimen was stabilized for 1 hour with static tension of 1 g. The KH solution was exchanged twice during that time. The tension on the specimen was recorded on a multi-channel recorder via pickup and amplifier. After the stabilization of the specimen, contraction was caused by using 1 μmol/L phenylephrine (Phe), and cumulative administration of each compound (0.001, 0.01, 0.03, 0.1, 0.3, 1, 3, 10, 30, 100, 1000, 10000 nmol/L) was performed. For the evaluation of a case in which 1H-1,2,4-oxadiazole-(4,3a)-quinoxalin-1-one (ODQ) is contained, 10 μmol/L ODQ was added 10 minutes before the Phe addition, and the same evaluation as above was performed.
EC50 value was calculated using four-parameter logistics model using Assay Explorer (Accelrys). The test compound solution was dissolved in DMSO such that the concentration of each test compound is 1000 times the final concentration.

Emax at 10 µM ([1]; ODQ not contained, read-out: Emax (%) ODQ− (Heme-dependent)): 81.3% | Emax at 10 µM ([1]; with 10 μmol/L ODQ, read-out: Emax (%) ODQ+ (Heme-independent)): 123% | EC50 Ratio (ODQ−/ODQ+) [2]: 5.2
SMILES: O=C(O)CCCCN(CCc1ccccc1OCc1ccc2c(c1)CCC2)C1CCCc2cc(C(=O)O)ccc21 (stereo not drawn) [Example 46, 5-{N-(4-Carboxybutyl)-N-[2-[2-(indane-5-ylmethoxy)phenyl]ethyl]amino}-5,6,7,8-tetrahydronaphthalene-2-carboxylic acid]
